“And” between values parts separate entries of the source, which are not always exact repeats. Identical values can stand only once. Toxic doses and inconclusive results are not listed.
Test system: BDF1 mice, P388 leukemia ip, median survival T/C
Test: NCI In Vivo Anticancer Drug Screen. Data for tumor model P388 Leukemia (intraperitoneal) in B6D2F1 (BDF1) mice
Details: endpoint: median survival time, higher = longer survival
In short: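 Steps: implant the tumour, treat one group with compound and another with vehicle, record survival, then divide treated by control.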

With O=c1[nH]cc(F)c(=O)[nH]1 the T/C (dose: 5.0 mg/kg/injection, schedule: Q03HX024 (ip), vehicle: saline) was 210 % of control, the T/C (dose: 7.5 mg/kg/injection, schedule: Q01DX009 (ip), vehicle: saline) was 166 % of control and 179 % of control and 184 % of control and the T/C (dose: 7.5 mg/kg/injection, schedule: Q03HX024 (ip), vehicle: saline) was 219 % of control. The T/C (dose: 8.0 mg/kg/injection, schedule: Q01DX005 (ip), vehicle: saline) was 163 % of control, the T/C (dose: 9.4 mg/kg/injection, schedule: Q04DX003 (ip), vehicle: saline) was 120 % of control and the T/C (dose: 10.0 mg/kg/injection, schedule: Q01DX010 (ip), vehicle: acetone) was 95 % of control. The T/C (dose: 10.0 mg/kg/injection, schedule: Q03HX024 (ip), vehicle: saline) was 233 % of control, the T/C (dose: 11.0 mg/kg/injection, schedule: Q01DX009 (ip), vehicle: saline) was 211 % of control and the T/C (dose: 13.0 mg/kg/injection, schedule: Q01DX009 (ip), vehicle: saline) was 122 % of control. For the same compound, the T/C (dose: 13.2 mg/kg/injection, schedule: Q01DX009 (ip), vehicle: saline) was 250 % of control, the T/C (dose: 13.3 mg/kg/injection, schedule: Q01DX009 (ip), vehicle: Klucel (hydroxypropylcellulose) (HPC)) was 150 % of control and the T/C (dose: 13.3 mg/kg/injection, schedule: Q01DX009 (ip), vehicle: saline sonified) was 181 % of control. The T/C (dose: 14.0 mg/kg/injection, schedule: Q01DX009 (ip), vehicle: saline) was 169 % of control, the T/C (dose: 15.0 mg/kg/injection, schedule: Q03HX024 (ip), vehicle: saline) was 254 % of control and the T/C (dose: 16.0 mg/kg/injection, schedule: Q01DX005 (ip), vehicle: saline) was 170 % of control. The T/C (dose: 16.0 mg/kg/injection, schedule: Q01DX009 (ip), vehicle: saline) was 228 % of control and 169 % of control, the T/C (dose: 20.0 mg/kg/injection, schedule: Q01DX005 (ip), vehicle: water) was 205 % of control and the T/C (dose: 20.0 mg/kg/injection, schedule: Q01DX009 (ip), vehicle: Klucel (hydroxypropylcellulose) (HPC)) was 100 % of control. The T/C (dose: 20.0 mg/kg/injection, schedule: Q01DX009 (ip), vehicle: saline sonified) was 113 % of control, the T/C (dose: 20.0 mg/kg/injection, schedule: Q01DX010 (ip), vehicle: acetone) was 213 % of control and the T/C (dose: 20.0 mg/kg/injection, schedule: Q04DX003 (ip), vehicle: saline) was 166 % of control. The T/C (dose: 22.5 mg/kg/injection, schedule: Q03HX024 (ip), vehicle: saline) was 112 % of control, the T/C (dose: 23.0 mg/kg/injection, schedule: Q01DX009 (ip), vehicle: saline) was 205 % of control and the T/C (dose: 24.0 mg/kg/injection, schedule: Q01DX009 (ip), vehicle: saline) was 243 % of control. The T/C (dose: 25.0 mg/kg/injection, schedule: Q04DX003 (ip), vehicle: water) was 150 % of control, the T/C (dose: 26.0 mg/kg/injection, schedule: Q04DX003 (ip), vehicle: saline) was 96 % of control and 111 % of control and the T/C (dose: 27.0 mg/kg/injection, schedule: Q01DX009 (ip), vehicle: Klucel (hydroxypropylcellulose) (HPC)) was 166 % of control. The T/C (dose: 27.0 mg/kg/injection, schedule: Q01DX009 (ip), vehicle: saline sonified) was 181 % of control, the T/C (dose: 27.0 mg/kg/injection, schedule: Q04DX003 (ip), vehicle: saline) was 154 % of control and the T/C (dose: 32.0 mg/kg/injection, schedule: Q01DX005 (ip), vehicle: saline) was 185 % of control. For the same compound, the T/C (dose: 36.0 mg/kg/injection, schedule: Q04DX003 (ip), vehicle: saline) was 153 % of control and 165 % of control, the T/C (dose: 39.0 mg/kg/injection, schedule: Q01DX009 (ip), vehicle: saline) was 87 % of control and the T/C (dose: 40.0 mg/kg/injection, schedule: Q01DX005 (ip), vehicle: water) was 185 % of control. The T/C (dose: 40.0 mg/kg/injection, schedule: Q01DX010 (ip), vehicle: acetone) was 100 % of control, the T/C (dose: 50.0 mg/kg/injection, schedule: Q01DX001 (ip), vehicle: saline) was 153 % of control and the T/C (dose: 50.0 mg/kg/injection, schedule: Q04DX003 (ip), vehicle: saline) was 152 % of control and 158 % of control. The T/C (dose: 50.0 mg/kg/injection, schedule: Q04DX003 (ip), vehicle: water) was 170 % of control, the T/C (dose: 65.0 mg/kg/injection, schedule: Q04DX003 (ip), vehicle: saline) was 98 % of control and the T/C (dose: 66.0 mg/kg/injection, schedule: Q01DX001 (ip), vehicle: saline) was 100 % of control and 111 % of control. For the same compound, the T/C (dose: 75.0 mg/kg/injection, schedule: Q01DX001 (ip), vehicle: water) was 150 % of control, the T/C (dose: 75.0 mg/kg/injection, schedule: Q04DX003 (ip), vehicle: saline) was 163 % of control and 196 % of control and the T/C (dose: 80.0 mg/kg/injection, schedule: Q01DX010 (ip), vehicle: saline) was 90 % of control. For the same compound, the T/C (dose: 88.0 mg/kg/injection, schedule: Q01DX001 (ip), vehicle: saline) was 99 % of control and 108 % of control, the T/C (dose: 100.0 mg/kg/injection, schedule: Q04DX003 (ip), vehicle: water) was 190 % of control and the T/C (dose: 108.0 mg/kg/injection, schedule: Q04DX003 (ip), vehicle: saline) was 98 % of control. For the same compound, the T/C (dose: 160.0 mg/kg/injection, schedule: Q01DX001 (ip), vehicle: saline) was 104 % of control and 108 % of control and 117 % of control, the T/C (dose: 175.0 mg/kg/injection, schedule: Q01DX001 (ip), vehicle: saline) was 150 % of control and the T/C (dose: 180.0 mg/kg/injection, schedule: Q04DX003 (ip), vehicle: saline) was 100 % of control. For the same compound, the T/C (dose: 200.0 mg/kg/injection, schedule: Q04DX003 (ip), vehicle: water) was 100 % of control, the T/C (dose: 225.0 mg/kg/injection, schedule: Q01DX001 (ip), vehicle: saline) was 117 % of control and the T/C (dose: 240.0 mg/kg/injection, schedule: Q01DX001 (ip), vehicle: saline) was 105 % of control and 106 % of control. The T/C (dose: 250.0 mg/kg/injection, schedule: Q01DX001 (ip), vehicle: saline) was 90 % of control, the T/C (dose: 360.0 mg/kg/injection, schedule: Q01DX001 (ip), vehicle: saline) was 109 % of control and 111 % of control and the T/C (dose: 400.0 mg/kg/injection, schedule: Q01DX001 (ip), vehicle: saline) was 100 % of control.

Source: PubChem BioAssay AID328 (DTP/NCI, 2004)
